Paper PMC5956543, “Antimicrobial and antioxidant activities of triterpenoid and phenolic derivatives from two Cameroonian Melastomataceae plants: Dissotis senegambiensis and Amphiblemma monticola” (BMC Complementary and Alternative Medicine, 2018)
Converted amounts (≈) assume the structure as drawn. Read-outs that look alike come from different tables or passages of the source.

Tests used:
S. aureus MSSA1 = assay: Broth microdilution antimicrobial assay (MIC/MMC); format: cell-based, Staphylococcus aureus; details: for MIC / MBC: Staphylococcus aureus, 24 h; for MIC: 37 °C; for MBC: no growth after sub-culturing
Procedure: (§1) The microorganisms used in this study include four bacterial (Staphylococcus aureus ATCC25923, methicillin sensitive S. aureus MSSA1, methicillin resistant S. aureus MRSA3 and methicillin resistant S. aureus MRSA4) and three yeast strains (Candida albicans ATCC10231, Candida tropicalis PK233 and Cryptococcus neoformans H99). These microorganisms were taken from our laboratory collection. The fungal and bacterial strains were grown at 37 °C and maintained on Sabouraud Dextrose Agar (SDA, Conda, Madrid, Spain) and nutrient agar (NA, Conda) slants respectively.
(§2) The inocula of bacteria and yeasts were prepared from overnight cultures as previously described. Absorbance was read spectrophotometrically at 530 nm and 600 nm for yeasts and bacteria respectively. The final concentrations of microbial suspensions were 2.5 × 10^5 cells/mL for yeasts and 10^6 CFU/mL for bacteria.
(§3) The antimicrobial activity was evaluated by determining the minimum inhibitory concentrations (MICs). MICs of extracts and compounds were determined by broth micro dilution. Each test sample was dissolved in 10% v/v aqueous dimethylsulfoxide (DMSO) to give a stock solution. This was serially diluted two-fold in Mueller-Hinton Broth (MHB) for bacteria and Sabouraud Dextrose Broth (SDB) for fungi to obtain a concentration range of 4096 to 0.25 μg/mL. Then, 100 μL of each sample concentration was added to respective wells (96-well micro plate) containing 90 μL of SDB/ MHB and 10 μL of inoculum to give final concentration ranges of 2048 to 4 μg/mL (for extracts) and 256 to 0.125 μg/mL (for compounds). Dilutions of nystatin (Sigma-Aldrich, Steinheim, Germany) and ciprofloxacin (Sigma-Aldrich, Steinheim, Germany) were used as positive controls for yeasts and bacteria respectively. Broth with 10 μL of DMSO was used as negative control. The cultured micro plates were covered; then, the contents of each well were mixed thoroughly using a plate shaker (Flow Laboratory, Germany) and incubated at 37 °C for 24 h (bacteria) and 48 h (yeasts) under shaking. After the incubation period, MICs were assessed visually and were taken as the lowest sample concentration at which there was no growth or virtually no growth. The lowest concentration that yielded no growth after the sub-culturing was considered as the minimum microbicidal concentrations (MMCs). All the tests were performed in triplicate.

S. aureus ATCC25923 = assay: Broth microdilution antimicrobial assay (MIC/MMC); format: cell-based, Staphylococcus aureus; details: for MIC / MBC: Staphylococcus aureus, 24 h; for MIC: 37 °C; for MBC: no growth after sub-culturing
Procedure: as §1, §2, §3

S. aureus MRSA3 = assay: Broth microdilution antimicrobial assay (MIC/MMC); format: cell-based, Staphylococcus aureus; details: S. aureus MRSA3; for MBC / MIC: Staphylococcus aureus, 24 h; for MBC: no growth after sub-culturing; for MIC: 37 °C
Procedure: as §1, §2, §3

S. aureus MRSA4 = assay: Broth microdilution antimicrobial assay (MIC/MMC); format: cell-based, Staphylococcus aureus; details: S. aureus MRSA4; for MBC / MIC: Staphylococcus aureus, 24 h; for MBC: no growth after sub-culturing; for MIC: 37 °C
Procedure: as §1, §2, §3

C. neoformans H99 = assay: Broth microdilution antimicrobial assay (MIC/MMC); format: cell-based, Cryptococcus neoformans; details: for MIC: 37 °C; for MIC / MFC: 48 h
Procedure: as §1, §2, §3

C. tropicalis PK233 = assay: Broth microdilution antimicrobial assay (MIC/MMC); format: cell-based, Candida tropicalis; details: for MIC: 37 °C; for MIC / MFC: 48 h
Procedure: as §1, §2, §3

[1] = tested on: bacterial and fungal strains; assay: Broth microdilution MIC, range over all tested strains; format: cell-based
Procedure: as §1, §2, §3

C. albicans ATCC10231 = assay: Broth microdilution antimicrobial assay (MIC/MMC); format: cell-based, Candida albicans; details: for MIC: 37 °C, 48 h; for MMC: no growth after sub-culturing
Procedure: as §1, §2, §3

[2] = Ferric reducing antioxidant power (FRAP) assay; details: Perl's Prussian blue at 700 nm; Fig. 2; BHT positive control
Procedure: The FRAP was determined by the Fe^3+-Fe^2+ transformation in the presence of extracts and compounds as previously described. The Fe^2+ was monitored by measuring the formation of Perl’s Prussian blue at 700 nm. Butylated hydroxytoluene (BHT) was used as a positive control. All the tests were performed in triplicate.

[3] = DPPH free radical scavenging assay; details: Fig. 3; vitamin C standard
Procedure: The free radical scavenging activity of extracts and compounds was evaluated according to described methods. The EC50 (μg/ml), which is the amount of sample necessary to inhibit by 50% the absorbance of free radical DPPH was calculated. Vitamin C was used as a standard control. All the analyses were carried out in triplicate.

[4] = Cryptococcus neoformans, read-out: MIC
[5] = Cryptococcus neoformans, no growth after sub-culturing
[6] = Candida tropicalis, read-out: MIC
[7] = Candida tropicalis, no growth after sub-culturing
[8] = range over all bacterial and fungal strains, read-out: MIC
[9] = Candida albicans, read-out: MIC

| SMILES | MMC/MIC (S. aureus MSSA1) | MIC (S. aureus MSSA1) [mg/L] | MBC (S. aureus MSSA1) [mg/L] | MMC/MIC (S. aureus ATCC25923) | MIC (S. aureus ATCC25923) [mg/L] | MBC (S. aureus ATCC25923) [mg/L] | MMC/MIC (S. aureus MRSA3) | MBC (S. aureus MRSA3) [mg/L] | MIC (S. aureus MRSA3) [mg/L] | MMC/MIC (S. aureus MRSA4) | MBC (S. aureus MRSA4) [mg/L] | MIC (S. aureus MRSA4) [mg/L] | MIC (C. neoformans H99; [4]) [mg/L] | MFC (C. neoformans H99; [5]) [mg/L] | MIC (C. tropicalis PK233; [6]) [mg/L] | MFC (C. tropicalis PK233; [7]) [mg/L] | MIC (C. albicans ATCC10231; [9]) [mg/L] | MMC (C. albicans ATCC10231) [µg/mL] | reducing power (FRAP, in words) [2] | DPPH radical-scavenging activity (in words) [3] | also measured |
| --- | --- | --- | --- | --- | --- | --- | --- | --- | --- | --- | --- | --- | --- | --- | --- | --- | --- | --- | --- | --- | --- |
| O=C(O)c1cn(C2CC2)c2cc(N3CCNCC3)c(F)cc2c1=O [Ciprofloxacin, reference compound] | 1 | 1 (≈ 3.02 µM) | 1 (≈ 3.02 µM) | 1 | 1 (≈ 3.02 µM) | 1 (≈ 3.02 µM) | 1 | 16 (≈ 48.3 µM) | 16 (≈ 48.3 µM) | 1 | 32 (≈ 96.6 µM) | 32 (≈ 96.6 µM) |  |  |  |  |  |  |  |  |  |
| C[C@H]1[C@H](C)CC[C@]2(C(=O)O)CC[C@]3(C)C(=CC[C@@H]4[C@@]5(C)CC[C@H](O)C(C)(C)[C@@H]5CC[C@]43C)[C@H]12 [Compound 3, ursolic acid] |  | 128 (≈ 280 µM) | > 256 |  | 256 (≈ 561 µM) | > 256 |  | > 256 | 128 (≈ 280 µM) |  | > 256 | 128 (≈ 280 µM) | 128 (≈ 280 µM) | > 256 | 256 (≈ 561 µM) | > 256 | 256 (≈ 561 µM) | > 256 |  |  | antimicrobial activity (in words) ([1]; all the tested bacterial and fungal species): active against all the tested bacterial and fungal species; MIC [1, 8]: 128 to 256 mg/L (≈ 280 to 561 µM) |
| CC[C@H](CC[C@@H](C)[C@H]1CCC2C3CC=C4C[C@@H](O[C@@H]5O[C@H](CO)[C@@H](O)[C@H](O)[C@H]5O)CC[C@]4(C)C3CC[C@@]21C)C(C)C (stereo partly drawn) [Compound 4, sitosterol-3-O-β-D-glucopyranoside] |  | > 256 | > 256 |  | > 256 | > 256 |  | > 256 | > 256 |  | > 256 | > 256 | 128 (≈ 222 µM) | > 256 | 256 (≈ 444 µM) | > 256 | 256 (≈ 444 µM) | > 256 | not active | not active |  |
| O=c1cc(-c2ccc(O)cc2)oc2c([C@@H]3O[C@H](CO)[C@@H](O)[C@H](O)[C@H]3O)c(O)cc(O)c12 [Compound 5, vitexin] | 2 | 64 (≈ 148 µM) | 128 (≈ 296 µM) | 2 | 64 (≈ 148 µM) | 128 (≈ 296 µM) | 2 | 128 (≈ 296 µM) | 64 (≈ 148 µM) | 2 | 256 (≈ 592 µM) | 128 (≈ 296 µM) | 128 (≈ 296 µM) | 128 (≈ 296 µM) | 64 (≈ 148 µM) | 128 (≈ 296 µM) | 128 (≈ 296 µM) | 256 |  |  | MMC/MIC (C. neoformans H99): 1; MMC/MIC (C. tropicalis PK233): 2; MIC [1]: 64 to 128 mg/L (≈ 148 to 296 µM); MMC/MIC (C. albicans ATCC10231): 2 |
| O=C(C=Cc1ccc(O)cc1)OCC1OC(Oc2c(-c3ccc(O)cc3)oc3cc(O)cc(O)c3c2=O)C(O)C(O)C1O (stereo not drawn) [Compound 6, trans-tiliroside] | 1 | 64 (≈ 108 µM) | 64 (≈ 108 µM) | 2 | 32 (≈ 53.8 µM) | 64 (≈ 108 µM) | 2 | 128 (≈ 215 µM) | 64 (≈ 108 µM) | 1 | 128 (≈ 215 µM) | 128 (≈ 215 µM) | 64 (≈ 108 µM) | 128 (≈ 215 µM) | 64 (≈ 108 µM) | 64 (≈ 108 µM) | 64 (≈ 108 µM) | 64 |  |  | MMC/MIC (C. neoformans H99): 2; MMC/MIC (C. tropicalis PK233): 1; MIC [1, 8]: 32 to 128 mg/L (≈ 53.8 to 215 µM); MMC/MIC (C. albicans ATCC10231): 1 |
| C=C(C)[C@@H]1CC[C@]2(C)CC[C@]3(C)[C@H](CC[C@@H]4[C@@]5(C)CC[C@H](O)C(C)(C)[C@@H]5CC[C@]43C)[C@@H]12 [Compound 9, lupeol] |  | 256 (≈ 600 µM) | > 256 |  | 256 (≈ 600 µM) | > 256 |  | > 256 | > 256 |  | > 256 | > 256 | 256 (≈ 600 µM) | > 256 | 256 (≈ 600 µM) | > 256 | > 256 |  | not active | not active |  |
| CC1(C)CC[C@]2(C(=O)O)CC[C@]3(C)C(=CC[C@@H]4[C@@]5(C)CC[C@H](O)C(C)(C)[C@@H]5CC[C@]43C)[C@@H]2C1 [Compound 13, oleanolic acid] |  |  |  |  |  |  |  |  |  |  |  |  |  |  |  |  |  |  | not active | not active |  |
| C[C@@H]1[C@H](O)[C@@H](C)/C=C/C=C/CC/C=C/C=C/C=C/C=C/C(O[C@H]2O[C@H](C)[C@@H](O)[C@H](N)[C@@H]2O)CC2O[C@](O)(CC(O)C(O)CCC(O)CC(O)CC(O)CC(=O)O[C@H]1C)CC(O)C2C(=O)O (stereo partly drawn) [nystatin, reference compound] |  |  |  |  |  |  |  |  |  |  |  |  |  |  |  |  |  | 2 |  |  | MMC/MIC (C. neoformans H99): 1; MIC (C. neoformans H99): 1 mg/L (≈ 1.08 µM); MMC (C. neoformans H99; no growth after sub-culturing): 1 µg/mL; MMC/MIC (C. tropicalis PK233): 2; MIC (C. tropicalis PK233): 0.5 mg/L (≈ 0.54 µM); MMC (C. tropicalis PK233; no growth after sub-culturing): 1 µg/mL; MMC/MIC (C. albicans ATCC10231): 1; MIC (C. albicans ATCC10231): 2 mg/L (≈ 2.16 µM) |
